This passage reports melting point results from a melting point compilation (Tetko et al.; mined from patent text by program, amines drawn as free bases though some values may be those of a salt).

For orientation: melting point means the temperature of the solid-liquid transition.

`COC(=O)CN1CCN(C(=O)OC(C)(C)C)C(Cc2ccc(OCc3ccccc3)cc2)C1=O` (centres undefined): the melting point was in the range of 84 to 87 °C. Turning to `NS(=O)(=O)c1ccc(-n2nc(C(F)(F)F)c(C3CC3)c2-c2ccccc2)cc1`, the melting point is 173 to 174 °C.

For the molecule `O=C1CCCc2cc(Sc3ccccc3)cc(F)c21`, the melting point was in the range of 112 to 113 °C. Then `CN(C)CC(O)Cn1c2ccccc2c2c3c(c4c5ccccc5n(C)c4c21)C(=O)NC3=O` (centres undefined), with 130 to 135 °C; and `O=C(Nc1noc2ccccc12)N1CCN(c2nc(N3CCCCC3)ns2)CC1`, with 214 to 215 °C; and `CCCN(CCCCNC(=O)N1CC=C(c2ccccc2)CC1)C1CCc2ncsc2C1` (centres undefined), with 115 °C. Then `COc1cc(OC)nc(-c2c(C)[nH]c3c(C)cccc23)n1`, with 145 to 147 °C.

The molecule `COCOc1ccc(-n2cc(C(=O)O)c(=O)cc2-c2ccc(N(C)C)cc2)cc1` yielded a melting point of 150 to 152 °C. `CC(C)c1ccc2c(c1)c(-c1ccccc1Cl)c(NC(=O)Nc1cccc(C(F)(F)F)c1)c(=O)n2C` showed a melting point of 209 to 210 °C. The same measure for `O=[N+]([O-])c1cc(OCC2CCCSC2)c(Cl)cc1F` (centres undefined): 100 to 103 °C; for `CC(C)(C)OC(=O)N1CCC[C@H]1C(=O)OCCCNc1cccc2c1C(=O)c1ccccc1C2=O`: 121 °C. The molecule `O=C(O)Cc1ccccc1OCCCCc1cc(-c2ccc(C(F)(F)F)cc2)no1` displayed a melting point of 122 to 123 °C. `CC1CC(C)CN(C(=O)C2Cc3ccccc3N2C(=O)OC(C)(C)C)C1` (centres undefined) displayed a melting point of 148 to 149 °C. `COCOc1ccc(-c2cc(S(C)=O)nn2-c2ccc(OC)cc2)cc1` (centres undefined): the melting point turned out to be 137 °C. Regarding `CCCCCCCCCCCCCCCCCCNC(=O)OCC(CNS(=O)(=O)CCCI)NC(=O)OCCCC` (centres undefined), the melting point lay within 96 to 98 °C. Consider `CSCCCn1c(C)nc2c(N)nc3ccccc3c21`, for which the melting point fell in the range of 199 to 202 °C.

`Cc1ccc(-c2sc(N)c(C(=O)c3ccc(Cl)cc3)c2CN(C2CCCCC2)C2CCCCC2)cc1` showed a melting point of 191 to 194 °C. In turn, `CC(C)C[C@H](NC(=O)OC(C)(C)C)C(=O)N1CCN(C(c2ccc(F)cc2)c2ccc(F)cc2)CC1` came in with a melting point of 59 to 66 °C. Turning to `CCc1c(CNc2ccc3ccc(C)nc3n2)c(CC)c(CNc2ccc3ccc(C)nc3n2)c(CC)c1CNc1ccc2ccc(C)nc2n1`, the melting point lay in the range of 207 to 208 °C. Then `CNCCCn1c(-c2ccc(OC)cc2)csc1=Nc1ccccc1`, with 143 to 146 °C. In the case of `CCc1nc2cc(C(F)(F)F)c(Cl)cc2n1-c1ccc(CCOC(=O)NS(=O)(=O)c2ccccn2)cc1`, the melting point fell in the range of 127 to 130 °C. For `CNc1ccc(C(=O)OC)c(OC)n1`, the melting point was in the range of 120 to 122 °C. Then `CN(C)c1cccc2c(S(=O)(=O)Nc3ccc(Cl)nn3)cccc12`, with 153 to 154 °C; and `Cc1ccc2c(c1)C=Cc1cc(C(C)C)ccc1C2c1cn(-c2ccnc(NCC(=O)Nc3nc(CC(=O)O)cs3)n2)c(=O)[nH]c1=O` (centres undefined), with 215 to 220 °C; and `CCCCNC(=O)[C@@H](C[C@H](O)[C@@H](N)CC1CCCC1)C(C)C`, with 93 to 94 °C. The molecule `CC1(C)C(=O)Oc2ccc3ccc(Cn4ccnc4)cc3c21` returned a melting point of 135 to 136 °C.

As for `O=C(CCCCCCS(=O)(=O)c1ccc2ccccc2c1)c1ncco1`, the melting point lay in the range of 75 to 76 °C. For the molecule `CCCCCCCCCCCCCCCCOCC(=O)O`, the melting point fell in the range of 64 to 66 °C. Turning to `Cc1oc2c(C)c(C)c(NC(=O)c3ccc(F)cc3)c(C)c2c1-c1ccccc1`, the melting point was in the range of 242 to 245 °C. The same measure for `Cc1cccc(NC(=O)NC2N=C(C3CCCCC3)c3ccccc3N(CC(=O)N3CC4CCC(CC4)C3)C2=O)c1` (racemic): 133 to 135 °C; for `COc1ccnc(-c2nc(=O)c3ccccc3s2)c1`: 214 to 215 °C.

In the case of `COc1ccc(-n2[nH]c(Cc3c(C)n(C(=O)c4ccc(Cl)cc4)c4ccc(OC)cc34)cc2=O)cc1`, the melting point lay within 101 to 103 °C. The same measure for `Cc1nc(-c2cccc(Cl)c2)c(CCC(=O)O)o1`: 159 to 160 °C; for `COC(=O)c1nc(OC)nc(OC)c1Cl`: 98 to 100 °C; for `CC1SC(c2cccnc2)N(C2CCCCC2)C1=O` (centres undefined): 120 to 125 °C.

Molecule `CC(C)Cc1ccc(C(C)C(=O)ON(C(N)=O)C(C)c2cc3ccccc3s2)cc1` (centres undefined) registered a melting point of 123 to 128 °C. `COC(=O)C1=CON2CCC34C=CC(O)CC3Oc3c(OC)ccc(c34)C12` (centres undefined) had a melting point of 151 to 154 °C. Turning to `C[Si](C)(C)OC1(C#N)CCOc2ccc(Cl)cc21` (centres undefined), the melting point was 72 to 73 °C. `COc1cc2ccccc2cc1OC` had a melting point of 112 to 113 °C.

Molecule `O=C1c2ccccc2CN1c1ccc(CCN2CCN(c3nsc4ccccc34)CC2)cc1` showed a melting point of 176 °C. Take `CSc1ccc(C(CC2CCCC2)C(=O)O)cc1C(F)(F)F` (centres undefined): the melting point lay within 105 to 106 °C. Then `CC(C)Oc1cc(CCCOc2cc(CCC(=O)O)n(C)n2)cc(COc2ccc(Cl)cc2Cl)c1`, with 116 to 120 °C; and `COc1ccc(-c2cnc(N3CCc4c([nH]c5ccccc45)C3C3Cc4ccccc4O3)nc2)cc1` (centres undefined), with 242 to 243 °C; and `CC1(C)NC(=O)N(Cc2ccccc2)C1=O`, with 101 to 104 °C. Take `NS(=O)(=O)c1ccc(-c2oc(C(F)(F)F)nc2-c2ccccc2)cc1`: the melting point is 137 to 138 °C. Molecule `COc1cc2c(c(Cl)c1Cl)C(=O)CCC2` displayed a melting point of 132 °C.

`NC(=O)C(N)CC(=O)N[C@@H]1CN2C(=O)N(c3cc(Cl)nc(Cl)c3)C(=O)[C@@]2(Cc2ccc(OC(F)(F)F)cc2)C1` (some centres undefined) came in with a melting point of 108 °C. The molecule `Nc1ccc(Sc2cc(Cl)cc(Cl)c2)c(Cl)c1` yielded a melting point of 157 to 160 °C. On to `CCOC(=O)COc1ccc(C2OCCCO2)cc1NC(=O)c1ccc(OCCCCc2ccccc2)cc1`, for which the melting point turned out to be 73 °C. As for `O=C(Cn1c(-c2ccc(Br)cc2)nc2cccnc21)Nc1ccccc1Cl`, the melting point lay within 230 to 232 °C. Then `Clc1ccc2c(c1)C(c1ccccc1)=NCc1n[nH]nc1-2`, with 199 to 200 °C.

As for `CC(CCCO[Si](C)(C)C(C)(C)C)C1CCC2C3CC=C4C(C)(C)C(O[Si](C)(C)C(C)(C)C)CCC4(C)C3CCC12C` (centres undefined), the melting point lay within 161 to 162 °C. With `CC(=O)OCc1nccc(OCCCOc2ccc3ncc([N+](=O)[O-])n3n2)c1C`, the melting point was 148 to 151 °C. Then `Cn1c(=O)c(Oc2ccc(F)cc2F)cc2cnc(S(C)(=O)=O)nc21`, with 177 to 178 °C; and `Cc1cc(C)c(C(O)c2cc(-n3ccnc3)ccc2Cl)c(C)c1` (centres undefined), with 206 to 207 °C. `Cn1cnc(-c2ccccc2)c1-c1nn(-c2cccc(C(F)(F)F)c2)ccc1=O` gave a melting point of 214 to 216 °C. `CN1CCCC1C1CCCN(CC(=O)N2c3ccccc3NC(=O)c3ccccc32)C1` (centres undefined) registered a melting point of 161 to 163 °C. The same measure for `COc1cc(Cc2cnc(N)nc2N)cc(-c2cccc(NS(=O)(=O)c3ccc(N)cc3)c2)c1OC`: 223 to 226 °C; for `O=C(O)C1CC(=O)N(c2ccccc2)C1c1cccnc1` (centres undefined): 229 to 232 °C; for `Nc1nc2c(c(=O)[nH]1)S[C@H](CCc1ccc(C(=O)O)s1)CN2`: 283 to 285 °C. The same measure for `CNC(=O)c1cnc(-c2ccccc2)c(-c2ccc(=O)n(C(C)C)n2)c1`: 212 to 213 °C; for `CCc1ccc(CC2N=C(c3ccc(F)cc3)c3cc(Cl)ccc3N(C)C2=O)cc1CC` (centres undefined): 54 to 56 °C.

In the case of `COc1nc(C)nc(NC(=O)NS(=O)(=O)c2cccc3c2nnn3C)n1`, the melting point was 134 to 136 °C. Turning to `N#Cc1cc(NC(=O)c2cc3ccccc3o2)ccc1OC1CCN(Cc2ccccc2)CC1`, the melting point was 175 °C.

As for `CCCCCc1ccc(CCc2ccc(-c3ccc(OC(F)F)cc3)cc2)cc1`, the melting point worked out at 121 °C. Then `CCc1cccc(C)c1CNc1cc(Br)cc2c1nc(COC)n2C`, with 110 to 112 °C; and `Cc1nc(NC(=O)c2cnn3c(C(F)(F)F)cc(-c4ccc(C(F)(F)F)cc4)nc23)sc1S(=O)(=O)NC(C)(C)CO`, with 257 °C; and `NS(=O)(=O)c1ccc(F)c(F)c1`, with 89 to 91 °C.

In the case of `OC(c1ccccc1)(c1ccc(Cl)cc1)c1nccn1Cc1ccccc1` (centres undefined), the melting point is 174 to 175 °C.

Molecule `COCCOCCN1C(=O)C2(COc3cc4c(cc32)OCCO4)c2c(OC)cc(OC)cc21` (centres undefined) came in with a melting point of 158 to 160 °C.

`CCOC(=O)c1cn(Cc2ccccc2)nc1OCc1ccc(OCc2nc(-c3ccco3)oc2C)cc1` registered a melting point of 101 to 102 °C. The molecule `O=C(O)[C@H](CCc1ccccc1)NS(=O)(=O)c1ccc2oc3ccccc3c2c1` came in with a melting point of 130 to 132 °C. Then `O=C1OC(CN2CCC3(CC2)C(=O)NCN3c2ccccc2)CN1c1ccccc1` (centres undefined), with 166 to 168 °C.

In turn, `Cc1cccc(CC(=O)c2ccnc(-c3ccc(OC(F)(F)F)cc3)c2)n1` gave a melting point of 60 °C. Then `COP(=O)(Cc1cccc(CP(=O)(OC)OC)c1F)OC`, with 116 to 118 °C; and `COC(=O)N1C(=O)c2ccccc2C1=O`, with 184 °C; and `CC1(C)C2=C(CCC2=O)c2ccccc21`, with 114 °C. Then `CC1(C)NS(=O)(=O)c2cc([N+](=O)[O-])ccc21`, with 187 °C; and `O=C(O)Cc1ccc(NC(=O)c2ccc(Cl)cc2)cc1`, with 252 °C. The molecule `O=C(NCc1ccncc1)c1ccccc1` gave a melting point of 177 °C. In turn, `CCCOC(=O)c1c(C)nc2cc(OC)c(OC)cc2c1-c1ccc(OC)c(OC)c1` returned a melting point of 153 to 155 °C. Take `O=C1CC(=O)C2C3C=CC(CC3)C12` (centres undefined): the melting point came to 264 °C.

Regarding `COc1ccc(COCc2nc(C(C)C)c(Sc3cc(Cl)cc(Cl)c3)n2C(C)C)cc1`, the melting point was in the range of 136 to 137 °C.

As for `CCOc1ncc(C(C)=O)cc1C(=O)Nc1c(C(N)=O)nn(C2CN(CC)C2)c1CC`, the melting point lay in the range of 230 to 233 °C.
